For assay [1], the system named is KRAS G12C mutant NCI-H358 cells. Kind of assay: Cell proliferation inhibition experiment, 3D spheroid, CellTiter-Glo, NCI-H358. The assay is classed as cell-based, human. The note with it: read-out: H358 IC50. The procedure, abridged:
(§1)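 Cells seeded in 2% FBS medium in spheroid plates (800 H358 or 400 A549 per well), grown overnight to form 3D spheroids, then exposed to 3.16-fold compound dilutions (0.1% DMSO) for 5 days. CellTiter-Glo luminescence gave inhibition vs DMSO and medium blanks; IC50 by four-parameter fit.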

The test system of assay [2] is A549 cells (KRAS G12S mutant). Put plainly: Cell proliferation inhibition experiment, 3D spheroid, CellTiter-Glo, A549. The class given is cell-based, human. Conditions: read-out: A549 IC50. The procedure, abridged:
as §1

Where [3] appears, read: Homo sapiens, NCI-H358, 120 h, NCI-H358 (KRAS G12C mutant) 3D spheroid, 5 days with compound, CellTiter-Glo.
Where [4] appears, read: Homo sapiens, A549, 120 h, A549 (KRAS G12S mutant) 3D spheroid, 5 days with compound, CellTiter-Glo.
[5] abbreviates: NCI-H358 (KRAS G12C mutant) 3D spheroid, 5 days with compound, CellTiter-Glo.
The mark [6] stands for this setting: A549 (KRAS G12S mutant) 3D spheroid, 5 days with compound, CellTiter-Glo.

Counter-ions that a name gives are not always drawn. Like-named read-outs stand apart in the source and are kept apart here.

As for `C=CC(=O)N1CCN2C(=O)c3c(N4C[C@@H](O)CC4(C)C)nc(-c4c(O)cccc4F)c(Cl)c3OC[C@H]2C1` (single isomer, unassigned) [Z81], the IC50 (usually the concentration that gives 50% inhibition) was 1 nM in assay [1] (setting [3]) and above 1 µM in assay [2] (setting [4]). For `C=CC(=O)N1CCN2C(=O)c3c(N4C[C@H](O)CC4(C)C)nc(-c4c(O)cccc4F)c(Cl)c3OC[C@H]2C1` (single isomer, unassigned) [Z82], in that order: 11 nM and above 1 µM.

Regarding `C=CC(=O)N1CCN2C(=O)c3c(N4CC(=O)N(C)CC4C)nc(-c4c(O)cccc4F)c(Cl)c3OC[C@H]2C1` (single isomer, unassigned) [Z221-1], the IC50 in assay [1] (setting [5]) is 2.7 nM; in assay [2] (setting [4]) it was above 30 µM. Turning to `C=CC(=O)N1CCN2C(=O)c3c(N4CC(=O)N(C)CC4C)nc(-c4c(O)cccc4F)c(Cl)c3OC[C@H]2C1` (single isomer, unassigned) [Z221-2], in assay [1] (setting [5]), the IC50 is 16.8 nM.

As for `C=CC(=O)N1CCN2C(=O)c3c(N4CC(N(C)C5COC5)CC4(C)C)nc(-c4c(O)cccc4F)c(Cl)c3OC[C@H]2C1` (single isomer, unassigned) [Z331-1], the IC50 worked out at 0.5 nM in assay [1] (setting [5]) and 8.33 µM in assay [2] (setting [4]). For `C=CC(=O)N1CCN2C(=O)c3c(N4CC(N(C)C5COC5)CC4(C)C)nc(-c4c(O)cccc4F)c(Cl)c3OC[C@H]2C1` (single isomer, unassigned) [Z331-2], the IC50 in assay [1] (setting [5]) was 1.1 nM; in assay [2] (setting [6]) it was 9.32 µM. For `C=CC(=O)N1CCN2C(=O)c3c(N4CCN(C)C[C@@H]4C)nc(-c4c(O)cccc4Cl)c(Cl)c3OC[C@H]2C1` (single isomer, unassigned) [Z455-1] the same measures were 45.2 nM and 4.18 µM. For `C=CC(=O)N1CCN2C(=O)c3c(N4CCN(C)C[C@@H]4C)nc(-c4c(O)cccc4Cl)c(Cl)c3OC[C@H]2C1` (single isomer, unassigned) [Z455-2], in that order: 3.7 nM and above 10 µM. Turning to `C=CC(=O)N1CCN2C(=O)c3c(N4CC(N5CCOCC5)CC4(C)C)nc(-c4ccccc4F)c(Cl)c3OC[C@H]2C1` (single isomer, unassigned) [Z468-2], the values for the IC50 in assay [1] (setting [5]) and in assay [2] (setting [6]) were 5 nM and 4.56 µM, respectively.

Regarding `C=CC(=O)N1CCN2C(=O)c3c(N4C[C@H](N(C)C)CC4(C)C)nc(-c4ccccc4)c(Cl)c3OC[C@H]2C1` (single isomer, unassigned) [Z655-2], the results for the IC50 in assay [1] (setting [5]) and in assay [2] (setting [6]) were 18 nM and 2.75 µM, respectively.

As to `C=CC(=O)N1CCN2C(=O)c3c(N4C[C@H](N(C)CCF)CC4(C)C)nc(-c4ccccc4F)c(Cl)c3OC[C@H]2C1` (single isomer, unassigned) [Z660-2], the IC50 stood at 10.8 nM in assay [1] (setting [5]) and 9.08 µM in assay [2] (setting [6]).

With `C=CC(=O)N1CCN2C(=O)c3c(Nc4c(C)ccnc4C(C)C)nc(-c4c(O)cccc4F)c(Cl)c3OC[C@H]2C1` [Z5, (6aR)-8-acryloyl-4-chloro-3-(2-fluoro-6-hydroxyphenyl)-1-((2-isopropyl-4-methylpyridin-3-yl)amino)-6,6a,7,8,9,10-hexahydro-12H-pyrazino[2,1-c]pyrido[3,4-f][1,4]oxazepin-12-one], the values for the IC50 in assay [1] (setting [3]) and in assay [2] (setting [4]) were 31 nM and 4.68 µM, respectively. With `C=CC(=O)N1CCN2C(=O)c3c(N(C)c4c(C)ccnc4C(C)C)nc(-c4c(O)cccc4F)c(Cl)c3OC[C@H]2C1` [Z6, (6aR)-8-acryloyl-4-chloro-3-(2-fluoro-6-hydroxyphenyl)-1-((2-isopropyl-4-methylpyridin-3-yl)(methyl)amino)-6,6a,7,8,9,10-hexahydro-12H-pyrazino[2,1-c]pyrido[3,4-f][1,4]oxazepin-12-one], the values for the IC50 in assay [1] (setting [3]) and in assay [2] (setting [4]) were 7 nM and above 30 µM, respectively. For `C=CC(=O)N1CCN2C(=O)c3c(OC4CCN(C)CC4)nc(-c4c(O)cccc4F)c(Cl)c3OC[C@H]2C1` [Z61, (6aR)-8-acryloyl-4-chloro-3-(2-fluoro-6-hydroxyphenyl)-1-((1-methylpiperidin-4-yl)oxy)-6,6a,7,8,9,10-hexahydro-12H-pyrazino[2,1-c]pyrido[3,4-f][1,4]oxazepin-12-one], in that order: 33 nM and above 30 µM. For `C=CC(=O)N1CCN2C(=O)c3c(N4CCOC5(CC5)C4)nc(-c4c(O)cccc4F)c(Cl)c3OC[C@H]2C1` [Z63, (6aR)-8-acryloyl-4-chloro-1-(4-oxa-7-azaspiro[2.5]octan-7-yl)-3-(2-fluoro-6-hydroxyphenyl)-6,6a,7,8,9,10-hexahydro-12H-pyrazino[2,1-c]pyrido[3,4-f][1,4]oxazepin-12-one], the IC50 was 14 nM in assay [1] (setting [3]) and above 1 µM in assay [2] (setting [4]).

Consider `C=CC(=O)N1CCN2C(=O)c3c(N4CC[C@@H]4C)nc(-c4c(O)cccc4F)c(Cl)c3OC[C@H]2C1` [Z68, (6aR)-8-acryloyl-1-((S)-2-methylazetidin-1-yl)-4-chloro-3-(2-fluoro-6-hydroxyphenyl)-6,6a,7,8,9,10-hexahydro-12H-pyrazino[2,1-c]pyrido[3,4-f][1,4]oxazepin-12-one], for which the IC50 in assay [1] (setting [3]) is 12 nM; in assay [2] (setting [4]), above 5 µM.

For `C=CC(=O)N1CCN2C(=O)c3c(NC(C)(C)C)nc(-c4c(O)cccc4F)c(Cl)c3OC[C@H]2C1` [Z69, (6aR)-8-acryloyl-1-(tert-butylamino)-4-chloro-3-(2-fluoro-6-hydroxyphenyl)-6,6a,7,8,9,10-hexahydro-12H-pyrazino[2,1-c]pyrido[3,4-f][1,4]oxazepin-12-one], the IC50 in assay [1] (setting [3]) was 9 nM; in assay [2] (setting [4]), above 5 µM. Consider `C=CC(=O)N1CCN2C(=O)c3c(NC(C)C)nc(-c4c(O)cccc4F)c(Cl)c3OC[C@H]2C1` [Z75, (6aR)-8-acryloyl-4-chloro-1-(isopropylamino)-3-(2-fluoro-6-hydroxyphenyl)-6,6a,7,8,9,10-hexahydro-12H-pyrazino[2,1-c]pyrido[3,4-f][1,4]oxazepin-12-one], for which the IC50 in assay [1] (setting [3]) was 29 nM; in assay [2] (setting [4]), above 1 µM. `C=CC(=O)N1CCN2C(=O)c3c(N4CCOC5CC54)nc(-c4c(O)cccc4F)c(Cl)c3OC[C@H]2C1` (stereo partly drawn) [Z76, (6aR)-8-acryloyl-4-chloro-1-(2-oxa-5-azabicyclo[4.1.0]heptan-5-yl)-3-(2-fluoro-6-hydroxyphenyl)-6,6a,7,8,9,10-hexahydro-12H-pyrazino[2,1-c]pyrido[3,4-f][1,4]oxazepin-12-one]: the IC50 is 22 nM in assay [1] (setting [3]) and above 1 µM in assay [2] (setting [4]). Regarding `C=CC(=O)N1CCN2C(=O)c3c(N4CC(=O)N(C)CC4C)nc(-c4c(O)cccc4F)c(Cl)c3OC[C@H]2C1` (stereo partly drawn) [Z221, (6aR)-8-acryloyl-4-chloro-1-(2,4-dimethyl-5-oxopiperazin-1-yl)-3-(2-fluoro-6-hydroxyphenyl)-6,6a,7,8,9,10-hexahydro-12H-pyrazino[2,1-c]pyrido[3,4-f][1,4]oxazepin-12-one], the 50% inhibitory concentration (IC50) came to 3 nM in assay [1] (setting [3]) and 20.1 µM in assay [2] (setting [4]). As for `C=CC(=O)N1CCN2C(=O)c3c(N4CCN(C)[C@H](C)C4)nc(-c4c(O)cccc4F)c(Cl)c3OC[C@H]2C1` [Z235, (6aR)-8-acryloyl-4-chloro-1-((R)-3,4-dimethylpiperazin-1-yl)-3-(2-fluoro-6-hydroxyphenyl)-6,6a,7,8,9,10-hexahydro-12H-pyrazino[2,1-c]pyrido[3,4-f][1,4]oxazepin-12-one], the IC50 in assay [1] (setting [3]) was found to be 21 nM; in assay [2] (setting [4]), 9.48 µM.

As to `C=CC(=O)N1CCN2C(=O)c3c(N4CCN(CC)C[C@@H]4C)nc(-c4c(O)cccc4F)c(Cl)c3OC[C@H]2C1` [Z236], the IC50 in assay [1] (Homo sapiens, NCI-H358, 120 h) was 5.8 nM; in assay [2] (Homo sapiens, A549, 120 h), 9.58 µM. With `C=CC(=O)N1CCN2C(=O)c3c(N4CC(O)CC4(C)C)nc(-c4c(O)cccc4F)c(F)c3OC[C@H]2C1` (stereo partly drawn) [Z256, (6aR)-8-acryloyl-4-fluoro-3-(2-fluoro-6-hydroxyphenyl)-1-(4-hydroxy-2,2-dimethylpyrrolidin-1-yl)-6,6a,7,8,9,10-hexahydro-12H-pyrazino[2,1-c]pyrido[3,4-f][1,4]oxazepin-12-one], the 50% inhibitory concentration (IC50) in assay [1] (setting [3]) is 5 nM; in assay [2] (setting [4]) it was 13.9 µM.

Turning to `C=CC(=O)N1CCN2C(=O)c3c(N4C[C@H](O)C[C@@H]4C)nc(-c4c(O)cccc4F)c(Cl)c3OC[C@H]2C1` [Z259, (6aR)-8-acryloyl-4-chloro-3-(2-fluoro-6-hydroxyphenyl)-1-((2S,4R)-4-hydroxy-2-methylpyrrolidin-1-yl)-6,6a,7,8,9,10-hexahydro-12H-pyrazino[2,1-c]pyrido[3,4-f][1,4]oxazepin-12-one], in assay [1] (setting [3]), the IC50 turned out to be 29 nM. As for `C=CC(=O)N1CCN2C(=O)c3c(N4CCNC(C)C4C)nc(-c4c(O)cccc4F)c(Cl)c3OC[C@H]2C1` (stereo partly drawn) [Z308, (6aR)-8-acryloyl-4-chloro-1-(2,3-dimethylpiperazin-1-yl)-3-(2-fluoro-6-hydroxyphenyl)-6,6a,7,8,9, 10-hexahydro-12H-pyrazino[2,1-c]pyrido[3,4-f][1,4]oxazepin-12-one], the IC50 in assay [1] (setting [3]) turned out to be 30 nM. Turning to `C=CC(=O)N1CCN2C(=O)c3c(N4CCN(C)C(C)(C)C4)nc(-c4ccccc4F)c(Cl)c3OC[C@H]2C1` [Z463, (R)-8-acryloyl-4-chloro-3-(2-fluorophenyl)-1-(3,3,4-trimethylpiperazin-1-yl)-6,6a,7,8,9,10-hexahydro-12H-pyrazino[2,1-c]pyrido[3,4-f][1,4]oxazepin-12-one, formate], the IC50 in assay [1] (Homo sapiens, NCI-H358, 120 h) came to 39 nM.

The values are drawn from US20230203060A1 (GENFLEET THERAPEUTICS (SHANGHAI) INC., priority 2020, published 2023).
